Twelve molecules from PubChem BioAssay (NCI) can be followed below.

Among the test systems are BT-549 breast; CCRF-CEM leukemia; HOP-92 NSCLC; HT29 colon; MDA-MB-231 breast; MDA-N; NCI-H522 lung; NCI/ADR-RES ovarian; OVCAR-8 ovarian; SF-539 CNS.
What all share (assay): inhibition of tumour cell growth, NCI panel, 48 h

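How tested: cells in 96-well plates exposed to compound for 48 hours at five concentrations. TGI: concentration producing complete growth inhibition.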

Take `N=C1C=CC(=C(c2ccc(N)cc2)c2ccc(N)cc2)C=C1`: the TGI with BT-549 breast stood at 7.97 µM; in the test on CCRF-CEM leukemia it was 19.5 µM; in the test on HOP-92 NSCLC it was 12.7 µM; in the test on HT29 colon it was 14.3 µM; in the test with MDA-MB-231 breast it was 32.5 µM; with MDA-N it was 30.3 µM. For the same molecule, the TGI in the test on NCI-H522 lung is 12.8 µM; with NCI/ADR-RES ovarian, 49.3 µM; in the test on OVCAR-8 ovarian it was 15.9 µM; in the test on SF-539 CNS, 13.1 µM.
For `O=C(CC(=O)N1N=C(c2ccccc2)C(N=Nc2ccc(S(=O)(=O)CCOS(=O)(=O)O)cc2)C1=O)Nc1ccc(Cl)cc1` (stereo not given), the TGI with BT-549 breast, in the test on CCRF-CEM leukemia, with HOP-92 NSCLC, with HT29 colon, in the test on MDA-MB-231 breast and with MDA-N was > 100 µM each time. In addition, the TGI in the test with NCI-H522 lung, with NCI/ADR-RES ovarian, in the test on OVCAR-8 ovarian and with SF-539 CNS was > 100 µM in each case.
As for `O=C(CCCCCNC(=O)c1ccc(Cl)cc1)NO`, the TGI in the test on BT-549 breast was > 100 µM; with CCRF-CEM leukemia it was > 100 µM; in the test on HOP-92 NSCLC it was 11.1 µM; in the test with HT29 colon it was > 100 µM; in the test on MDA-MB-231 breast, 21 µM; in the test on MDA-N, 10.8 µM. The TGI is 15.2 µM in the test on NCI-H522 lung, 5.07 µM with NCI/ADR-RES ovarian, 86.8 µM in the test on OVCAR-8 ovarian and > 100 µM in the test with SF-539 CNS.
Turning to `COCC(C#N)NC1CC(OC2CC(O)(C(=O)CO)Cc3c(O)c4c(c(O)c32)C(=O)c2c(OC)cccc2C4=O)OC(C)C1O` (stereo not given), the TGI with BT-549 breast came out at 0.653 µM; with CCRF-CEM leukemia, 1.69 µM; in the test on HOP-92 NSCLC, 5 µM; with HT29 colon, 9.03 µM; in the test with MDA-MB-231 breast it was 0.729 µM; with MDA-N, 0.349 µM. The TGI with NCI-H522 lung was 0.193 µM; in the test on NCI/ADR-RES ovarian it was 16 µM; with OVCAR-8 ovarian it was 0.549 µM; in the test with SF-539 CNS it was 0.365 µM.
With `COC1(OC)CC(CO)(COc2cc(Cl)nc(N)n2)C1`, the TGI with BT-549 breast, with CCRF-CEM leukemia, in the test with HOP-92 NSCLC, in the test on HT29 colon, in the test with MDA-MB-231 breast and with MDA-N was > 100 µM in each case. The TGI in the test on NCI-H522 lung, in the test on NCI/ADR-RES ovarian, with OVCAR-8 ovarian and with SF-539 CNS was > 100 µM each time.
`CC1(C)CC(=O)c2c(N)n[nH]c2C1`: the TGI in the test with BT-549 breast, in the test with CCRF-CEM leukemia, in the test with HOP-92 NSCLC, in the test on HT29 colon, with MDA-MB-231 breast and in the test with MDA-N was > 100 µM each time. Also, the TGI in the test on NCI-H522 lung, with NCI/ADR-RES ovarian, in the test on OVCAR-8 ovarian and in the test on SF-539 CNS was > 100 µM each time.
In the case of `c1ccc2c(c1)nnn2C1CCCCO1` (stereo not given), the TGI in the test on BT-549 breast, in the test on CCRF-CEM leukemia, in the test on HOP-92 NSCLC, in the test with HT29 colon, with MDA-MB-231 breast and with MDA-N was > 100 µM in each case. Moreover, the TGI in the test on NCI-H522 lung, with NCI/ADR-RES ovarian, with OVCAR-8 ovarian and in the test with SF-539 CNS was > 100 µM each time.
Consider `CCOc1ccc2c(c1)C(/C(C(Cl)=C(Cl)Cl)=[N+](/[O-])OC(=O)c1ccccc1)=N2`, for which the TGI in the test on BT-549 breast was 97.8 µM; in the test on CCRF-CEM leukemia it was > 100 µM; with HOP-92 NSCLC, > 100 µM; with HT29 colon, > 100 µM; in the test with MDA-MB-231 breast it was > 100 µM; in the test on MDA-N, > 100 µM. Moreover, the TGI with NCI-H522 lung, in the test with NCI/ADR-RES ovarian, in the test on OVCAR-8 ovarian and in the test on SF-539 CNS was > 100 µM in each case.
Regarding `C[Si](C)(C)OC1(C#N)c2ccccc2CCCC12CCCC2` (stereo not given), the TGI is > 100 µM in the test with BT-549 breast; 46 µM in the test with CCRF-CEM leukemia; 89.9 µM in the test on HOP-92 NSCLC; > 100 µM with HT29 colon; > 100 µM in the test with MDA-MB-231 breast; > 100 µM with MDA-N. In addition, the TGI with NCI-H522 lung is 77.7 µM; in the test with NCI/ADR-RES ovarian, > 100 µM; in the test with OVCAR-8 ovarian it was > 100 µM; with SF-539 CNS, > 100 µM.
Regarding `CCC[N+](C)(C)CCCNC(=O)c1c(O)c2ccccc2[nH]c1=O`, the TGI with BT-549 breast, with CCRF-CEM leukemia, in the test with HOP-92 NSCLC, in the test on HT29 colon, in the test on MDA-MB-231 breast and in the test on MDA-N was > 100 µM throughout. For the same molecule, the TGI in the test with NCI-H522 lung, with NCI/ADR-RES ovarian, in the test on OVCAR-8 ovarian and in the test with SF-539 CNS was > 100 µM throughout.
In the case of `[N-]=[N+]=Nc1cc(=O)[nH]c2ccccc12`, the TGI in the test on BT-549 breast, with CCRF-CEM leukemia, in the test with HOP-92 NSCLC, with HT29 colon, in the test on MDA-MB-231 breast and in the test on MDA-N was > 100 µM each time. The TGI with NCI-H522 lung, in the test with NCI/ADR-RES ovarian, in the test with OVCAR-8 ovarian and in the test on SF-539 CNS was > 100 µM in each case.
Regarding `CC1(C)C2CC3C(C)(C2)C31c1cc(Cl)ccc1N` (stereo not given), the TGI was found to be 30 µM in the test with BT-549 breast; 33.4 µM in the test on CCRF-CEM leukemia; 28.6 µM in the test with HOP-92 NSCLC; 27.6 µM in the test on HT29 colon; 30 µM in the test with MDA-MB-231 breast; 24.7 µM in the test with MDA-N. The TGI came out at 19.7 µM in the test on NCI-H522 lung, 29.5 µM in the test on NCI/ADR-RES ovarian, 30.3 µM in the test on OVCAR-8 ovarian and 32 µM with SF-539 CNS.
